Consider five molecules from US20220055997A1, “ANTIMICROBIAL COMPOUNDS AND COMPOSITIONS COMPRISING SAME” (B.G. NEGEV TECHNOLOGIES AND APPLICATIONS LTD., AT …, priority 2019, published 2022).

One assay relates to M. smegmatis ribosomes. Put plainly: bacterial coupled transcription/translation assay, luciferase reporter (in vitro translation). Type of assay: biochemical. The note with it: for inhibition of translation of a reporter gene by Mtb ribosomes in vitro / inhibition of luciferase activity compared with chloramphenicol / IC50: FIG. 4; for inhibition of translation of a reporter gene by Mtb ribosomes in vitro: dose-dependent; for inhibition of luciferase activity compared with chloramphenicol: luciferase activity vs compound concentration; for IC50: protein synthesis by in vitro translation reaction, M. smegmatis ribosomes.

Assay [1] has as its system 29mer RNA SEQ ID NO: 1, hairpin 91 of M. tuberculosis PTC. Put plainly: T2 relaxation (CPMG) NMR fragment screen. Type of assay: binding.

Regarding `Cc1nc(CN2CCN(Cc3csc(-c4ccccc4)n3)CC2)cs1` [Compound Nr. 2, 1-[(2-methylthiazol-4-yl)methyl]-4-[(2-phenylthiazol-4-yl)methyl]piperazine], in the assay with M. smegmatis ribosomes, the “inhibition of translation of a reporter gene by Mtb ribosomes in vitro” value was “inhibit translation of a reporter gene”, the “inhibition of luciferase activity compared with chloramphenicol” value is “as effective inhibitor of luciferase activity as chloramphenicol” and the 50% inhibitory concentration (IC50) (commonly the concentration at which inhibition is half-maximal) stood at 8.9 µM. In the assay on M. smegmatis ribosomes (Nr. 2 compared to compounds Nr. 3, 4 and 5, data not shown), the “inhibition activity compared among compounds” value is given as “higher inhibition activity”.

Consider `CNCc1ccc(-c2nccs2)cc1` [N-methyl-4-(1,3-thiazol-2-yl)benzylamine], for which the “hit in T2-edited (CPMG NMR) mini-screen” value in assay [1] (pool number 2 of three pools of 10 fragments, with and without target RNA, FIG. 3) was “hits”.

With `O=C(N[C@H](CO)[C@H](O)c1ccc([N+](=O)[O-])cc1)C(Cl)Cl` [chloramphenicol, reference compound], the IC50 on M. smegmatis ribosomes turned out to be 9.2 µM.

On to `NCc1csc(-c2cccc(Cl)c2)n1` [[2-(3-chlorophenyl)-1,3-thiazol-4-yl]methanamine], for which the “change in T2 upon addition of RNA” value in assay [1] (pool 81, peaks 1-3, 1D CPMG spectra, FIG. 7A) is “largest change in T2”.

On to `CCN1CCN(Cc2csc(-c3ccccc3)n2)CC1` [Compound Nr. 8, 1-ethyl-4-[(2-phenylthiazol-4-yl)methyl]piperazine], for which, in the assay with M. smegmatis ribosomes, the “inhibition of translation of a reporter gene by Mtb ribosomes in vitro” value was “inhibit translation of a reporter gene”, the “inhibition of luciferase activity compared with chloramphenicol” value is reported as “about twice as better than both” and the IC50 was found to be 4.8 µM.
